Results published in patent US20230212251A1, “PEPTIDES DERIVED FROM SORTILIN” (UNIVERSITE DE LIMOGES, priority 2019, published 2023).
Like-named read-outs stand apart in the source and are kept apart here.

Tests used:
Type in all cases: cell-based
[1] = system: human fibroblasts (non-cancerous cells); assay: Pro-apoptotic effect, real-time IncuCyte Zoom imaging; settings: peptide 1 μM, 96 hours real time, versus control
Procedure: (§1) In order to study cell death by apoptosis, the cells are seeded at a concentration of 2000 cells per well in 100 μL of culture medium, in 96-well plates. 24 hours later, the cell medium is removed, then the cells are rinsed once with sterile PBS 1× before adding the culture medium containing the different treatments, including the peptide according to the invention at […], and the reagents necessary for analysis of cell death. These latter are: IncuCyte® Caspase-3/7 Green Reagent (ref: 4440; EssenBio) diluted to 1:1000 in the culture medium; IncuCyte® Annexin V Green Reagent (ref: 4642; EssenBio) diluted to 1:200 diluted in the culture medium. Image acquisition is then carried out by positioning the plates in the IncuCyte Zoom® system (Ref: EssenBio) for 96 hours. Four images per well are then obtained, in high definition, every two hours, with the ×10 objective and the phase-contrast and green channels. These acquisitions are carried out automatically and non-invasively. The data are processed automatically with the IncuCyte Zoom® Live-Cell Analysis System (ref: EssenBio).
(§2) The pro-apoptotic effect of the peptide of sequence SEQ ID NO 7 at the concentration of 1 μM was measured in real time using the IncuCyte Zoom® system for 96 hours on the A549 line, on human fibroblasts (non-cancerous cells), as well as on two lines of adenocarcinomas H3255 and H1975, respectively presenting mutations of EGFR that are sensitive (L858R) and resistant (L858R/T790M) to the tyrosine kinase activity receptor inhibitors (TKI) used in the clinic via activation of two markers of apoptosis, namely annexin V and caspases 3 and 7. […] In fact, the levels of expression of these markers are identical under the conditions treated with the peptide and the control conditions. The peptide could therefore have a specific toxicity to cancer cells.

[2] = system: H1975 adenocarcinoma line (EGFR L858R/T790M); assay: as above; settings: H1975, peptide 1 μM, 96 hours real time
Procedure: as §1, §2

[3] = system: H3255 adenocarcinoma line (EGFR L858R); assay: as above; settings: H3255, peptide 1 μM, 96 hours real time
Procedure: as §1, §2

A549 line = assay: as above; settings: A549, peptide 1 μM, 96 hours real time
Procedure: as §1, §2

cells = assay: Cell penetration test via western blot; settings: 0 to 500 nM in complete culture medium, 24 hours' treatment
Procedure: 3. Extraction of the proteins under denaturing conditions Extraction of the whole proteins is carried out directly on the cell layers, after eliminating the supernatants and rinsing the cells in PBS 1×, or even on cell pellets previously stored at −80° C. It is carried out by incubating the cells with the Laemmli lysis buffer (62.5 mM Tris-HCl ref: 11814273001 ROCHE, pH 6.8, 2% SDS ref: L-4509, Sigma-Aldrich, 25% glycerol ref: G5516, Sigma-Aldrich) made up with 1% (v/v) protease inhibitor cocktail (ref: P8340-1ML, Sigma-Aldrich) and 1% (v/v) phosphatase inhibitor cocktail (ref: P0044-1ML, Sigma-Aldrich), in the proportions […] of buffer for 1.10^6 cells for 30 min over ice. In the case of extraction on the cell layer, a scraper (ref: 179693PK, Nunc, ThermoFisher) is used to collect the cells in the lysis buffer. Lysis is then completed by ultrasound parametered at 60 Hz, amplitude 2 s, for 1 minute (ref: SONIVCX-130-220, VWR). The lysates are then centrifuged at 17,000×g (ref: 75002442, Sorvall, ThermoFisher) for 20 min at 4° C., the supernatant containing the proteins is transferred to a sterile 1.5 mL tube (ref: 0030120086, Eppendorf), and the proteins are assayed by the Bradford method.
5. […] The concentration of the polyacrylamide gels varies from 8 to 15% as a function of the molecular weight of the proteins to be separated and analyzed. […]

A549 cell line = assay: Cell survival measured by XTT (Cell Proliferation Kit II); settings: XTT dehydrogenase activity, read-out: CI50 (concentration giving 50% inhibition of cell activity)
Procedure: The antineoplastic effect of the synthetic peptide, comprising Tat and a V5 tag of sequence SEQ ID NO 7 was tested on the A549 cell line (adenocarcinoma line having no mutation on the EDFR). A concentration range (0 to 10 μM) of the synthetic peptide of sequence SEQ ID NO 7 according to the invention was incubated for 24, 48 and 72 hours in the cell medium and the dehydrogenase activity thereof (proxy for viability) was measured (Cell Proliferation Kit II (XTT)-Roche) at the end of each incubation, i.e. at 24, 48 and 72 hours. Analysis of the graph representing the activity as a function of the log of the synthetic peptide concentration made it possible to establish CI50 values corresponding to the concentrations for which the peptide results in 50% inhibition of cell activity. These latter are respectively equal to 1.42, 1.52 and 0.57 μM for incubation times of 24, 48 and 72 hours.

cell nuclei = assay: Subcellular distribution by indirect immunofluorescence; settings: 2D and 3D confocal imaging
Procedure: The cells are seeded on a 24-well plate on 14 mm diameter glass slides. After each treatment condition, the cells are fixed, either with the complete medium containing paraformaldehyde (PFA) at 3.7% for 20 min at 4° C., or with methanol at −20° C. for 5 min. With methanol the fixation is carried out by dehydration (denaturing of the proteins), while with the aldehydes (formaldehyde) the 3D structure of the protein is preserved (fixing by bridging). The phosphorylations are analyzed after fixing with PFA. After fixing, the cell layer is washed 3 times for 5 minutes with […] PBS. In the case of fixing with PFA, the cells are permeabilized with Triton X-100 at 0.1% in PBS for 10 min at 4° C., then washed again. With regard to fixing with methanol, this confers the advantage of fixing and permeabilizing the cells at the same time. […] Starting from the fixing stage, all the solutions are filtered beforehand over a 0.2 μm filter in order to eliminate the fluorescence artefacts and the background noise. […] Then, three washes of 5 min in PBS are carried out, before incubation of the secondary antibody coupled with an Alexa fluor 488® (green fluorescence) (Table 4) for 1 hour at ambient temperature in the PBS-BSA solution. […]

GRKKRRQRRRPPQVLIVKKYVCGGRFLVHRYSVLQQHAEANGVDGVDALDTASHTNKSGYHDDSDEDLLEGKPIPNPLLGLDST [SEQ ID NO 7]
activation of annexin V (marker of apoptosis) [1]: does not seem to lead to activation | activation of caspases 3 and 7 (marker of apoptosis) [1]: does not seem to lead to activation | level of annexin V (marker of apoptosis) [2]: increase | level of caspases 3 and 7 (marker of apoptosis) [2]: increase | level of annexin V (marker of apoptosis) [3]: increase | level of caspases 3 and 7 (marker of apoptosis) [3]: increase | level of annexin V (marker of apoptosis) (A549 line): increase | level of caspases 3 and 7 (marker of apoptosis) (A549 line): increase | quantity of intracellular peptide detected in the cell lysate (anti-V5 western blot) (cells): dose-dependent peptide penetration | IC50 (A549 cell line; A549, 24 hours incubation): 1.42 µM | IC50 (A549 cell line; A549, 48 hours incubation): 1.52 µM | IC50 (A549 cell line; A549, 72 hours incubation): 0.57 µM | subcellular distribution of the peptide (anti-V5 immunofluorescence, DAPI) (cell nuclei): punctiform nuclear distribution
